Test results as given in patent US9783524B2, “Protein tyrosine kinase modulators and methods of use” (BETTA PHARMACEUTICALS CO., LTD., priority 2013, dated 2017).
Where two headings read alike, the source gives them in different places.

Columns and labels:
[1] = test system: ALK (h); format: biochemical, human; conditions: 0.1 μM test compound, 10 μM ATP; remaining activity relative to DMSO control = 100%
Protocol: (§1) Assay conditions included 10 μM ATP and 100 nM test compounds.
(§2) All reactions are initiated by the addition of the MgATP mix. After incubation for 40 minutes at room temperature, the reaction is stopped by the addition of 3% phosphoric acid solution. 10 μL of the reaction is then spotted onto a P30 filtermat and washed three times for 5 minutes in 75 mM phosphoric acid and once in methanol prior to drying and scintillation counting. This assay is performed by Millipore. The experiment is carried out in duplicate. The value for the control sample (DMSO) was set to 100%, and the values for the compound-treated samples were expressed as activity relative to the control sample.

[2] = test system: activated and resistant T790M forms of EGFR; assay: In vitro cellular assays, overall statement; format: cell-based; conditions: result in words
Protocol: (§3) Effects of test compounds on in vitro proliferation were measured by MTS cell viability assay.

[3] = test system: EGFR (T790M) (h); format: biochemical, human
Protocol: as §1, §2

[4] = test system: EGFR (T790M, L858R) (h); format: biochemical, human
Protocol: as §1
(§4) All reactions are initiated by the addition of the MgATP mix. After incubation for 40 minutes at room temperature, the reaction is stopped by the addition of 3% phosphoric acid solution. 10 μL of the reaction is then spotted onto a P30 filtermat and washed three times for 5 minutes in 75 mM phosphoric acid and once in methanol prior to drying and scintillation counting. […] The experiment is carried out in duplicate. The value for the control sample (DMSO) was set to 100%, and the values for the compound-treated samples were expressed as activity relative to the control sample.
(§5) (specific activity approx. 500 cpm/pmol, concentration as required) and 0.1 μM test compound.

[5] = test system: EGFR (L858R) (h); format: biochemical, human
Protocol: as §1, §4, §5

[6] = test system: H1975 (EGFR L858R/T790M) NSCLC cells; assay: Cell proliferation assay (MTS cell viability); format: cell-based; conditions: Homo sapiens, NCI-H1975, 72 h, 3 days of exposure
Protocol: as §3
(§6) Prepare test compounds in each well with a final medium volume of 200 μl;
Incubate for 3 days of exposure;
(§7) Prepare reagents following the instructions in the Cell Proliferation Assay kit (Promega);
(§8) Change to serum-free medium with a final volume of 100 μl/well. Prepare a set of wells with medium only for background subtraction;
(§9) Add 20 μl MTS solution containing PMS to each well (final concentration of MTS will be 0.33 mg/ml);
(§10) Incubate 1 to 4 hours at 37° C. in a humidified, 5% CO2 atmosphere.
(§11) Record absorbance at 490 nm using VICTOR™X5 plate reader (PerkinElmer).
(§12) All experimental points were set up in three wells and all experiments were repeated at least three times.

[7] = test system: HCC827 (EGFR Del) NSCLC cells; assay: Cell proliferation assay (MTS cell viability); format: cell-based; conditions: Homo sapiens, 72 h, 3 days of exposure
Protocol: as §3, §6
Incubate for 3 days of exposure;
as §7, §8, §9, §10, §11, §12

[8] = test system: A431 (EGFR WT) cells; assay: Cell proliferation assay (MTS cell viability); format: cell-based; conditions: Homo sapiens, A-431, 72 h, 3 days of exposure
Protocol: as §3
A431 cells were maintained in DMEM (Gibco) supplemented with 10% FBS, 100 units/mL penicillin, 100 units/mL streptomycin, and 2 mM glutamine.
2. Prepare test compounds in each well with a final medium volume of 200 μl;
3. Incubate for 3 days of exposure;
4. Prepare reagents following the instructions in the Cell Proliferation Assay kit (Promega);
5. Change to serum-free medium with a final volume of 100 μl/well. Prepare a set of wells with medium only for background subtraction;
6. Add 20 μl MTS solution containing PMS to each well (final concentration of MTS will be 0.33 mg/ml);
7. Incubate 1 to 4 hours at 37° C. in a humidified, 5% CO2 atmosphere.
8. Record absorbance at 490 nm using VICTOR™X5 plate reader (PerkinElmer).
as §12

[9] = test system: A549 (EGFR WT) NSCLC cells; assay: Cell proliferation assay (MTS cell viability); format: cell-based; conditions: Homo sapiens, 72 h, 3 days of exposure
Protocol: as §3
A549 cells were maintained in Ham's F12K medium (Gibco) supplemented with 10% FBS, 100 units/mL penicillin, 100 units/mL streptomycin, and 2 mM glutamine.
as §6
Incubate for 3 days of exposure;
as §7, §8, §9, §10, §11, §12

[10] = test system: EGFR (h); format: biochemical, human
Protocol: as §1, §4, §5

[11] = test system: lung cancer; conditions: all lung cancer patients, not selected for mutant EGFR; cited from earlier work
[12] = 0.1 μM test compound, 10 μM ATP, remaining activity relative to DMSO control = 100%

Row | Structure (SMILES) | Activity (control) % ALK (h) [1] [%] | Activity (control) % EGFR (T790M) (h) [3, 12] [%] | Activity (control) % EGFR (T790M, L858R) (h) [4, 12] [%] | Activity (control) % EGFR (L858R) (h) [5, 12] [%] | Activity (control) % EGFR (h) [10, 12] [%] | also measured
1 | C=CC(=O)Nc1cc(Nc2ncc(Cl)c(Nc3ccccc3C(=O)C(=O)N(C)C)n2)ccc1OC [Example 65, N-(5-(5-chloro-4-(2-(2-(dimethylamino)-2-oxoacetyl)phenylamino)pyrimidin-2-ylamino)-2-methoxyphenyl)acrylamide] | 19 | 80 | 25 | – | – | activity against both activated and resistant T790M forms of EGFR in vitro cellular assays [2]: potent activity
2 | C=CC(=O)Nc1cc(Nc2ncc(Cl)c(Nc3ccccc3C(=O)C(=O)N(C)C)n2)c(OC)cc1F [Example 66, N-(5-(5-chloro-4-(2-(2-(dimethylamino)-2-oxoacetyl)phenylamino)pyrimidin-2-ylamino)-2-fluoro-4-methoxyphenyl)acrylamide] | 35 | 66 | 24 | – | – | activity against both activated and resistant T790M forms of EGFR in vitro cellular assays [2]: potent activity
3 | C=CC(=O)Nc1ccc(OC)c(Nc2ncc(Cl)c(Nc3ccccc3C(=O)C(=O)N(C)C)n2)c1 [Example 67, N-(3-(5-chloro-4-(2-(2-(dimethylamino)-2-oxoacetyl)phenylamino)pyrimidin-2-ylamino)-4-methoxyphenyl)acrylamide] | 13 | – | – | – | – | activity against both activated and resistant T790M forms of EGFR in vitro cellular assays [2]: potent activity; Activity (control) % EGFR (L858R) (h) [5]: 85%; Activity (control) % EGFR (T790M) (h) [3]: 50%; Activity (control) % EGFR (T790M, L858R) (h) [4]: 9%
4 | C=CC(=O)Nc1cc(Nc2ncc(Cl)c(Nc3ccccc3C(=O)C(=O)N(C)C)n2)c(OC)cc1N1CCN(C)CC1 [Example 74, N-(5-(5-chloro-4-(2-(2-(dimethylamino)-2-oxoacetyl)phenylamino)pyrimidin-2-ylamino)-4-methoxy-2-(4-methylpiperazin-1-yl)phenyl)acrylamide] | 9 | – | – | – | – | IC50 [6]: 50 nM; IC50 [7]: 30 nM; Activity (control) % EGFR (T790M) (h) [3]: 62%; IC50 [8]: 50 nM; IC50 [9]: 620 nM; Activity (control) % EGFR (h) [10]: 110%
5 | COc1ccc(NC(=O)/C=C/CN2CCOCC2)cc1Nc1ncc(Cl)c(Nc2ccccc2C(=O)C(=O)N(C)C)n1 [Example 79, (E)-N-(3-(5-chloro-4-(2-(2-(dimethylamino)-2-oxoacetyl)phenylamino)pyrimidin-2-ylamino)-4-methoxyphenyl)-4-morpholinobut-2-enamide] | 7 | 16 | 2 | 25 | 92 | –
6 | C=CC(=O)Nc1ccc(OC)c(Nc2ncc(Cl)c(Nc3ccccc3C(=O)C(=O)N3CCN(C)CC3)n2)c1 [Example 89, N-(3-(5-chloro-4-(2-(2-(4-methylpiperazin-1-yl)-2-oxoacetyl)phenylamino)pyrimidin-2-ylamino)-4-methoxyphenyl)acrylamide] | 8 | 5 | 1 | 10 | 67 | –
7 | COc1cc(Nc2ncc(Cl)c(Nc3ccccc3C(=O)C(=O)N(C)C)n2)ccc1N1CCN(C(C)=O)CC1 [Example 94, 2-(2-(2-(4-(4-acetylpiperazin-1-yl)-3-methoxyphenylamino)-5-chloropyrimidin-4-ylamino)phenyl)-N,N-dimethyl-2-oxoacetamide] | 6 | 45 | 9 | 84 | 100 | –
8 | C=C(CN1CCCC1)C(=O)Nc1ccc(OC)c(Nc2ncc(Cl)c(Nc3ccccc3C(=O)C(=O)N(C)C)n2)c1 [Example 97, N-(3-(5-chloro-4-(2-(2-(dimethylamino)-2-oxoacetyl)phenylamino)pyrimidin-2-ylamino)-4-methoxyphenyl)-2-(pyrrolidin-1-ylmethyl)acrylamide] | 23 | 2 | 6 | 46 | 74 | –
9 | C=CC(=O)Nc1cc(Nc2ncc(C)c(Nc3ccccc3C(=O)C(=O)N(C)C)n2)ccc1OC [Example 101, N-(5-(4-(2-(2-(dimethylamino)-2-oxoacetyl)phenylamino)-5-methylpyrimidin-2-ylamino)-2-methoxyphenyl)acrylamide] | 35 | 83 | 41 | 94 | 110 | –
10 | C=CC(=O)Nc1cc(Nc2ncc(Cl)c(Nc3ccccc3C(=O)C(=O)N(C)CCN(C)C)n2)ccc1OC [Example 102, N-(5-(5-chloro-4-(2-(2-((2-(dimethylamino)ethyl)(methyl)amino)-2-oxoacetyl)phenylamino)pyrimidin-2-ylamino)-2-methoxyphenyl)acrylamide] | 5 | 40 | 5 | 57 | 98 | –
11 | C=C(CN1CCOCC1)C(=O)Nc1cccc(Nc2ncc(Cl)c(Nc3ccccc3C(=O)C(=O)N(C)C)n2)c1 [Example 112, N-(3-(5-chloro-4-(2-(2-(dimethylamino)-2-oxoacetyl)phenylamino)pyrimidin-2-ylamino)phenyl)-2-(morpholinomethyl)acrylamide] | 21 | 14 | 1 | 66 | 85 | activity against both activated and resistant T790M forms of EGFR in vitro cellular assays [2]: potent activity
12 | C=C(CN1CCCCC1)C(=O)Nc1cccc(Nc2ncc(Cl)c(Nc3ccccc3C(=O)C(=O)N(C)C)n2)c1 [Example 113, N-(3-(5-chloro-4-(2-(2-(dimethylamino)-2-oxoacetyl)phenylamino)pyrimidin-2-ylamino)phenyl)-2-(piperidin-1-ylmethyl)acrylamide] | 19 | 16 | 3 | 78 | 88 | –
13 | CN(C)C/C=C/C(=O)Nc1cccc(Nc2ncc(Cl)c(Nc3ccccc3C(=O)C(=O)N(C)C)n2)c1 [Example 114, (E)-N-(3-(5-chloro-4-(2-(2-(dimethylamino)-2-oxoacetyl)phenylamino)pyrimidin-2-ylamino)phenyl)-4-(dimethylamino)but-2-enamide] | 10 | 47 | 8 | 52 | 91 | –
14 | COc1cc(Nc2ncc(Cl)c(Nc3ccccc3C(=O)C(=O)N(C)C)n2)ccc1N1CCC(N(C)C)CC1 [Example 118, 2-(2-(5-chloro-2-(4-(4-(dimethylamino)piperidin-1-yl)-3-methoxyphenylamino)pyrimidin-4-ylamino)phenyl)-N,N-dimethyl-2-oxoacetamide] | 3 | – | – | – | – | activity against both activated and resistant T790M forms of EGFR in vitro cellular assays [2]: potent activity; Activity (control) % EGFR (L858R) (h) [5]: 29%; Activity (control) % EGFR (T790M) (h) [3]: 18%; Activity (control) % EGFR (h) [10]: 82%; Activity (control) % EGFR (T790M, L858R) (h) [4]: 2%
15 | C=CC(=O)Nc1cc(Nc2ncc(Cl)c(Nc3ccccc3C(=O)C(=O)N(C)C)n2)ccc1OC1CCOC1 (stereo not drawn) [Example 124, N-(5-(5-chloro-4-(2-(2-(dimethylamino)-2-oxoacetyl)phenylamino)pyrimidin-2-ylamino)-2-(tetrahydrofuran-3-yloxy)phenyl)acrylamide] | 16 | 78 | 20 | 100 | 109 | –
16 | C=C(CN(C)CCN(C)C)C(=O)Nc1ccc(OC)c(Nc2ncc(Cl)c(Nc3ccccc3C(=O)C(=O)N(C)C)n2)c1 [Example 126, N-(3-(5-chloro-4-(2-(2-(dimethylamino)-2-oxoacetyl)phenylamino)pyrimidin-2-ylamino)-4-methoxyphenyl)-2-(((2-(dimethylamino)ethyl)(methyl)amino)methyl)acrylamide] | 19 | 5 | 2 | 47 | 93 | –
17 | C#Cc1cccc(Nc2ncnc3cc(OCCOC)c(OCCOC)cc23)c1 [erlotinib] | – | – | – | – | – | likelihood of tumor shrinkage (response rate) [11]: 8-10%; median time to tumor progression [11]: approximately 2 months
